Test results as given in patent US4018765A, “Process for the preparation of certain hydroperoxy derivatives” (Hoffmann-La Roche Inc., priority 1975, dated 1977).
Where two headings read alike, the source gives them in different places.

Key:
Type in all cases: in vivo
mice [1] = test: psychostimulant activity (pharmacological tests in animals such as mice); conditions: similarly tested
Procedure: (§1) As has been indicated hereinabove the novel end products of this invention, i.e., the compounds of formula I and their pharmaceutically acceptable acid addition salts and the compounds of formula II-d and their pharmaceutically acceptable acid addition salts, are useful as psychostimulants. When administered, for example, orally, or animals such as mice they produce a direct-acting stimulant effect of long duration in single doses in amounts ranging from 0.03 mg/kg to 50 mg/kg. […] Exp. Path. and Pharm., Vol. 140, page 237). The compounds of this invention have psychostimulant effects qualitatively similar in many respect to those of imipramine and amphetamine which are wellknown for their therapeutic uses and properties.

[2] = system: effects of β-(3,4-dihydroxyphenyl)-α-alanine (DOPA) in mice; test: DOPA potentiation test in mice; conditions: Mus musculus, ip
Procedure: as §1

[3] = system: hypothermia induced by reserpine in mice; test: reversal of hypothermia induced by reserpine in mice; conditions: Mus musculus, po, reserpine 10 mg/kg s.c., read-out: dose that reversed the hypothermia and hypometabolic effects induced by reserpine
Procedure: as §1

dogs = test: blood pressure in dogs; conditions: 4 mg/kg i.v.
Procedure: (§2) In addition to their use as psychostimulants, the compounds of formulas I and II-d are also useful as analgesic agents. […] For example, 2-(2-benzoylphenyl)-2-imadazoline in dogs at 4 mg/kg i.v. produced an increase in blood pressure of 10 mm. Hg after 2 minutes followed by gradual increase to 25 mm. Hg.

[4] = system: ptosis induced by tetrabenzene in mice; test: prevention of ptosis induced by tetrabenzene (tetrabenazene) in mice; conditions: Mus musculus, po, read-out: dose that prevented the ptosis induced by tetrabenzene
Procedure: as §1

animals = test: analgesic properties (pharmacological tests in animals); conditions: based on the pharmacological tests in animals
Procedure: as §2

unanesthetized cat = unanesthetized cat test for muscle relaxants; conditions: p.o.
Procedure: as §2

mice [5] = test: writhing test in mice (analgesic); conditions: p.o.
Procedure: as §2

[6] = comparison drugs, read-out: dose showing psychostimulant activity in the DOPA potentiation test
[7] = mice, i.p., read-out: dose that potentiated the effects of DOPA

With `COC1(c2ccccc2)c2ccccc2C2=NCCN21` (centres unmarked) [Example 19, 2,3-dihydro-5-methoxy-5-phenyl-5H-imidazo[2,1-a]isoindole] the “psychostimulant test result relative to 2-(2-benzoylphenyl)-2-imidazoline” value (mice [1]) was “qualitatively similar to 2-(2-benzoylphenyl)-2-imidazoline”.

`COc1ccc(C2(O)c3ccccc3C3=NCCN32)cc1` (centres unmarked) [2,3-dihydro-5-hydroxy-5-(4-methoxyphenyl)-5H-imidazo[2,1-a]-isoindole] was tested, and the “psychostimulant test result relative to 2-(2-benzoylphenyl)-2-imidazoline” value (mice [1]) was “qualitatively similar to 2-(2-benzoylphenyl)-2-imidazoline”.

In the case of `OC1(c2ccc(Cl)cc2)c2ccccc2C2=NCCN21` (centres unmarked) [5-(4-chlorophenyl)-2,3-dihydro-5-hydroxy-5H-imidazo[2,1-a]-isoindole], the “psychostimulant test result relative to 2-(2-benzoylphenyl)-2-imidazoline” value (mice [1]) was “qualitatively similar to 2-(2-benzoylphenyl)-2-imidazoline”.

`CC(N)Cc1ccccc1` (centres unmarked) [amphetamine, reference compound] gave a minimal effective dose [2, 6] of 1 mg/kg.

`CN(C)CCCN1c2ccccc2CCc2ccccc21` [imipramine, reference compound] was tested, and the minimal effective dose [2, 6] was 10 mg/kg.

In the case of `OC1(c2ccccc2)c2ccccc2C2=NCCCCN21` (centres unmarked) [Example 21, 2,3,4,5-tetrahydro-7-hydroxy-7-phenyl-7H-diazepino-[2,1-a]isoindole], the minimal effective dose [3] was 25 mg/kg and the minimal effective dose [2, 7] was 7.5 mg/kg.

For `O=C(c1ccccc1)c1ccccc1C1=NCCN1` [Example 10, 2-(2-benzoylphenyl)-2-imidazoline], the “increase in blood pressure after 2 minutes” value (dogs; after 2 minutes) was 10 mm. Hg, the “increase in blood pressure, following gradual increase” value (dogs; gradual increase after the first 2 minutes) was 25 mm. Hg and the minimal effective dose [4] was 0.06 mg/kg. The minimal effective dose [2, 7] was 6.25 mg/kg, the “analgesic properties relative to phenylbutazone” value (animals) was “can be likened to the analgesic properties of phenylbutazone” and the “dose active in the unanesthetized cat test for muscle relaxants” value (unanesthetized cat) was 2.5 mg/kg. The “dose with marked activity in the writhing test” value (mice [5]) was 30.8 mg/kg.
